In patent US20030236202A1, “Natural products and derivatives thereof for protection against neurodegenerative diseases” (priority 2002, published 2003):

Tests used:
[1] = test system: primary hippocampal cultures from rat; assay: Neuroprotection: rescue of neuronal cells from neurotoxin-induced apoptosis; type: cell-based; settings: 50 μM
Experimental: The capacity of two phenolic compounds to rescue neuronal cells from different kind of stressors was tested. To primary hippocampal cultures from rat, different neurotoxins (glutamate, hydrogen peroxide or beta-amyloid peptide) were added in such concentrations that in half of the cells apoptosis was induced. Then, together with the toxins, hydroxytyrosol or tyrosol were added in a final concentration of 50 μM, and the cells were incubated for 24 h. at 37° C. Subsequently, apoptosis was measured in the cell cultures and the number of cells that were protected by this treatment as compared to a control was calculated. […] Hydroxytyrosol protected around 60% of the cells against hydrogen peroxide, 35% against glutamate-induced neurotoxicity, and 45% against beta-amyloid induced apoptosis.

[2] = Compound in cerebrospinal fluid of rats after oral administration (gas chromatography); type: in vivo, rat; settings: rats which had received tyrosol orally
[3] = test system: Beta-amyloid peptide (1-40); assay: Prevention of metal-induced beta-amyloid precipitation (turbidometric assay); settings: 25 μM compound, 10 μM beta-amyloid (1-40)
Experimental: Therefore, an experiment was performed to study its capacity to solubilize beta-amyloid peptide from insoluble aggregates. Beta-amyloid peptide (1-40) was brought to 10 μM in 150 mM NaCl, 50 mM HEPES (pH 7.4), and mixed with 10 μM CuCl2 or 10 μM FeCl3. Precipitation of beta-amyloid peptide by copper and iron was measured by a turbidometric assay (Huang et al. J. Biol. Chem. 1997, 272(42), 26464-70). Copper- and iron-induced turbidity was almost completely abolished (>90%) by the presence of 25 μM hydroxytyrosol.

[4] = Total antioxidant capacity of cerebrospinal fluid after oral administration; type: in vivo; settings: rat, 100 mg oral, after 15 min
Experimental: Several rats were given 100 mg hydroxytyrosol by oral administration. After 15 min a small amount of cerebrospinal fluid was taken from the rat and analysed for the presence of hydroxytyrosol. Also the total antioxidant capacity in this fluid was measured and compared with a control. The detection of hydroxytyrosol was accomplished by gas chromatography and concentrations were determined by a standard curve. Hydroxytyrosol reached a concentration between 0.1 and 0.2 mM in cerebrospinal fluid after 15 minutes of oral administration. Moreover, the total antioxidant capacity of cerebrospinal fluid increased by 35% under these conditions as compared to a control.

[5] = molecular target: T1, monoamine oxidase B (MAO-B) (Rattus norvegicus, UniProt P19643); assay: Monoamine oxidase inhibition, purified mitochondria from rat brain tissue; type: biochemical; settings: benzylamine (300 μM) as substrate
T1 construct: MAO-B enzyme activities were measured using purified mitochondria from rat brain tissue; from tissue; host or cells: purified mitochondria from rat brain tissue
T1 sequence (P19643 1-520): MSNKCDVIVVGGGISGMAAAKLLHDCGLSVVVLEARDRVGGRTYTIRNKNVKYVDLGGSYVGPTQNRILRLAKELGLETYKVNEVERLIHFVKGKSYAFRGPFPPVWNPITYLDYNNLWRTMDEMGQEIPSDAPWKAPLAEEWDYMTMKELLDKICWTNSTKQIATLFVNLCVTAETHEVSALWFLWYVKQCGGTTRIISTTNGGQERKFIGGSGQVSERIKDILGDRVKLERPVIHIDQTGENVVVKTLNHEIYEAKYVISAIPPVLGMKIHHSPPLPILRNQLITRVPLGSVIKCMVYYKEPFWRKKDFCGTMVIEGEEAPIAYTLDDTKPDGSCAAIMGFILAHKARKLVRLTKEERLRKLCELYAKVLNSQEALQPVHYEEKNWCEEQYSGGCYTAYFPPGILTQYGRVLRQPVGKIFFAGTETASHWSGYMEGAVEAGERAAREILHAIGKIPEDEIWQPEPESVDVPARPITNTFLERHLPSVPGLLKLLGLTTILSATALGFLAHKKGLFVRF
Experimental: We determined the IC50 of hydroxytyrosol for monoamine oxidase B (MAO-B). Therefore, MAO-B enzyme activities were measured using purified mitochondria from rat brain tissue as described previously (Holt et al. Anal. Biochem. 1997, 244, 384-392). Benzylamine (300 μM) was used as a substrate for MAO-B and the IC50 was calculated by adding different amounts of hydroxytyrosol to the enzyme assay.

[6] = 24 h at 37° C., toxin inducing apoptosis in half of the cells

Compound | Protection of cells from dying (in words) ([1]; 24 h, glutamate, hydrogen peroxide or beta-amyloid peptide) | Tyrosol in cerebrospinal fluid (in words) [2] | Copper-induced turbidity abolished ([3]; 10 μM CuCl2, pH 7.4) [%] | Iron-induced turbidity abolished ([3]; 10 μM FeCl3, pH 7.4) [%] | Binding of iron, zinc and copper ions (in words) (Binding of metal ions) | Cells protected against beta-amyloid induced apoptosis [1, 6] [%] | Cells protected against glutamate-induced neurotoxicity [1, 6] [%] | Cells protected against hydrogen peroxide [1, 6] | Increase of total antioxidant capacity of cerebrospinal fluid as compared to a control [4] [%] | IC50 [5] [µM]
OCCc1ccc(O)cc1 [Tyrosol, 2-(4-hydroxyphenyl) ethanol] | protected part of the cells from dying | detected |  |  |  |  |  |  |  | 
OCCc1ccc(O)c(O)c1 [Hydroxytyrosol, 2-(3,4-dihydroxyphenyl) ethanol] |  |  | > 90 | > 90 | high affinity | ~45 | ~35 | around 60% | 35 | 16.3 ± 1.3
